Experimental data from patent publication US20260374754A1, “N-((ISOQUINOLIN-6-YL)METHYL)-1H-PYRAZOLE-4-CARBOXAMIDE DERIVATIVES AS PLASMA KALLIKREIN INHIBITORS FOR THE TREATMENT OF HEREDITARY ANGIODEMA” (Takeda Pharmaceutical Company Limited, priority 2022, published 2026).

These compounds were tested against human activated kallikrein enzyme (Homo sapiens, UniProt P03952) (assay: Inhibition of human activated plasma kallikrein, fluorogenic PFR-AMC substrate, 500 pM enzyme format). Settings: 500 pM activated kallikrein; 300 μM PFR-AMC; 30 min preincubation; 10 min room temperature; pH 7.5; read-out: Primary Dose Response Assay: Average EC50.
Chain of human activated kallikrein enzyme (P03952 391-638 limits assumed): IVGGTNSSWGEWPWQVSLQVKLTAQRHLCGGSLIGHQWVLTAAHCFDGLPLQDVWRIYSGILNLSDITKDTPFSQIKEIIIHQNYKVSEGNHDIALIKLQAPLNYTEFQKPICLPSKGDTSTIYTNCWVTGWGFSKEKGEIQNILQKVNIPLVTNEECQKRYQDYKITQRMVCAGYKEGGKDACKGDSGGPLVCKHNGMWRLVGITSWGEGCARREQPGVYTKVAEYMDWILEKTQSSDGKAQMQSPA
Chain of human activated kallikrein enzyme (P03952 20-390 partner limits assumed): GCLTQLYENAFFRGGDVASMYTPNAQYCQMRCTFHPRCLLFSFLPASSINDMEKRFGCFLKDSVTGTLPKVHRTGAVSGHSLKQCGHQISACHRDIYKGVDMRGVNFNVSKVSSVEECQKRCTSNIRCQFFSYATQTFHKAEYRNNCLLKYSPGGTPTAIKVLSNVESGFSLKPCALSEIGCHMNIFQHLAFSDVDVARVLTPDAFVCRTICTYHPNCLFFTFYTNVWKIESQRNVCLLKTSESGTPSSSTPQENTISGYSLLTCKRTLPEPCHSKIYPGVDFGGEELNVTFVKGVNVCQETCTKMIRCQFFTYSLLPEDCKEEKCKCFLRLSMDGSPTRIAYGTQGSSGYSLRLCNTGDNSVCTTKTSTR
Assay type: biochemical
Outline: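 Using fluorogenic PFR-AMC at 300 μM, cleavage by 500 pM human activated kallikrein ran 10 min at room temperature, read at 460 nm emission (380 nm excitation). Enzyme and compounds were first preincubated 30 min in 20 mM Tris pH 7.5, 150 mM NaCl, 1 mM EDTA, 0.1% PEG-400, 0.1% Triton X-100.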

Row | SMILES | EC50 [nM]
1 | Cc1cc2c(N)nccc2c(C)c1CNc1cc(N(Cc2ccc(Cn3cccn3)cc2C(F)(F)F)N=O)ncn1 [Example 381, N-(4-((1H-pyrazol-1-yl)methyl)-2-(trifluoromethyl)benzyl)-N-(6-(((1-amino-5,7-dimethylisoquinolin-6-yl)methyl)amino)pyrimidin-4-yl)nitrous amide] | 10 to 100
2 | CCOC(=O)Nc1nccc2c(C)c(CNc3cc(N(Cc4ccc(Cn5ccccc5=O)cc4)C(=O)OCC)ncn3)c(C)cc12 [Example I-481, ethyl (6-(((1-((ethoxycarbonyl)amino)-5,7-dimethylisoquinolin-6-yl)methyl)amino)pyrimidin-4-yl)(4-((2-oxopyridin-1(2H)-yl)methyl)benzyl)carbamate] | > 1000
3 | Cc1cc2c(N)nccc2c(C)c1CNc1cc(OCc2cnc(N3CCCC3)nc2)ncn1 [Example 298, 5,7-dimethyl-6-(((6-((2-(pyrrolidin-1-yl)pyrimidin-5-yl)methoxy)pyrimidin-4-yl)amino)methyl)isoquinolin-1-amine] | 10 to 100
4 | Cc1cc2c(N)nccc2c(C)c1CNC(=O)c1cnn(C(CNC(=O)OC(C)(C)C)c2ccccc2)c1 (stereo not shown) [Example 181, tert-butyl (2-(4-(((1-amino-5,7-dimethylisoquinolin-6-yl)methyl)carbamoyl)-1H-pyrazol-1-yl)-2-phenylethyl)carbamate] | > 1000
5 | Cc1cc2c(N)nccc2c(C)c1CNC(=O)c1cnn(Cc2ccc3c(-c4ccccn4)cccc3c2)c1 [Example 114, N-((1-amino-5,7-dimethylisoquinolin-6-yl)methyl)-1-((5-(pyridin-2-yl)naphthalen-2-yl)methyl)-1H-pyrazole-4-carboxamide] | < 1
6 | Cc1cc2c(N)nccc2c(C)c1CNC(=O)c1cnn(Cc2cn3cccc(C)c3n2)c1 [Example 54, N-((1-amino-5,7-dimethylisoquinolin-6-yl)methyl)-1-((8-methylimidazo[1,2-a]pyridin-2-yl)methyl)-1H-pyrazole-4-carboxamide] | 1 to 10
7 | Cc1cc2c(N)nccc2c(C)c1CNc1cc(OCc2cn3cc(C4CC4)ccc3n2)cnc1C(=O)O [Example 495, 3-(((1-amino-5,7-dimethylisoquinolin-6-yl)methyl)amino)-5-((6-cyclopropylimidazo[1,2-a]pyridin-2-yl)methoxy)picolinic acid] | > 1000
8 | Cc1cc2c(N)nccc2c(C)c1CNC(=O)c1cnn(Cc2ccccc2C2CC2)c1 [Example 118, N-((1-amino-5,7-dimethylisoquinolin-6-yl)methyl)-1-(2-cyclopropylbenzyl)-1H-pyrazole-4-carboxamide] | 100 to 1000
9 | Cc1cc2c(N)nccc2c(C)c1CNC(=O)c1cnn(Cc2ccc(Oc3cc(Cl)cn(C)c3=O)cc2)c1 [Example 17, N-((1-amino-5,7-dimethylisoquinolin-6-yl)methyl)-1-(4-((5-chloro-1-methyl-2-oxo-1,2-dihydropyridin-3-yl)oxy)benzyl)-1H-pyrazole-4-carboxamide] | < 1
10 | Cc1cc2c(N)nccc2c(C)c1CNC(=O)c1cnn([C@@H](C)c2ccccc2)c1 [Example 34, (S)-N-((1-amino-5,7-dimethylisoquinolin-6-yl)methyl)-1-(1-phenylethyl)-1H-pyrazole-4-carboxamide] | 100 to 1000
11 | Cc1cc2c(N)nccc2c(C)c1CNC(=O)c1cnn(Cc2nc3ccccc3n2C(F)F)c1 [Example 68, N-((1-amino-5,7-dimethylisoquinolin-6-yl)methyl)-1-((1-(difluoromethyl)-1H-benzo[d]imidazol-2-yl)methyl)-1H-pyrazole-4-carboxamide] | 10 to 100
12 | Cc1ccc2nc(C(C(=O)O)n3cc(C(=O)NCc4c(C)cc5c(N)nccc5c4C)cn3)cn2c1 (stereo not shown) [Example 129, 2-(4-(((1-amino-5,7-dimethylisoquinolin-6-yl)methyl)carbamoyl)-1H-pyrazol-1-yl)-2-(6-methylimidazo[1,2-a]pyridin-2-yl)acetic acid] | 1 to 10
13 | COC(=O)C12CC1CN(C(=O)Cc1ccc(Cn3cc(C(=O)NCc4c(C)cc5c(N)nccc5c4C)cn3)cc1)C2 (stereo not shown) [Example 217, methyl 3-(2-(4-((4-(((1-amino-5,7-dimethylisoquinolin-6-yl)methyl)carbamoyl)-1H-pyrazol-1-yl)methyl)pheny1)acetyl)-3-azabicyclo[3.1.0]hexane-1-carboxylate] | 1 to 10
14 | Cc1cc2c(N)nccc2c(C)c1CNc1cc(OCc2cnc3ccc(F)cc3c2)cnn1 [Example 415, 6-(((5-((6-fluoroquinolin-3-yl)methoxy)pyridazin-3-yl)amino)methyl)-5,7-dimethylisoquinolin-1-amine] | < 1
15 | Cc1c(CNC(=O)c2cnn(Cc3ccccc3)c2)c(C2(C)CC2)cc2c(N)nccc12 [Example 175, N-((1-amino-5-methy1-7-(1-methylcyclopropyl)isoquinolin-6-y1)methyl)-1-benzyl-1H-pyrazole-4-carboxamide] | 10 to 100
16 | Cc1cc2c(N)nccc2c(C)c1CNC(=O)c1cnn(Cc2ccc3ncccc3c2)c1 [Example 60, N-((1-amino-5,7-dimethylisoquinolin-6-yl)methyl)-1-(quinolin-6-ylmethyl)-1H-pyrazole-4-carboxamide] | < 1
17 | Cc1cc2c(N)nccc2c(C)c1CNC(=O)c1cnn(Cc2ccc(CC(=O)N3CCCC3)cc2)c1 [Example 232, N-((1-amino-5,7-dimethylisoquinolin-6-yl)methyl)-1-(4-(2-oxo-2-(pyrrolidin-1-yl)ethyl)benzyl)-1H-pyrazole-4-carboxamide] | < 1
18 | Cc1cc2c(N)nccc2c(C)c1CNc1cc2nn(Cc3ccc(Cn4cccn4)cc3)cc2cn1 [Example I-459, 6-(((2-(4-((1H-pyrazol-1-yl)methyl)benzyl)-2H-pyrazolo[4,3-c]pyridin-6-yl)amino)methyl)-5,7-dimethylisoquinolin-1-amine] | 10 to 100
19 | Cc1ccc(Cn2cc(C(=O)NCc3c(C)cc4c(N)nccc4c3C)cn2)cc1 [Example 35, N-((1-amino-5,7-dimethylisoquinolin-6-yl)methyl)-1-(4-methylbenzyl)-1H-pyrazole-4-carboxamide] | 10 to 100
20 | Cc1cc2c(N)nccc2c(C)c1CNC(=O)c1cnn(Cc2cn3cc(C4CC4)ccc3n2)c1 [Example 99, N-((1-amino-5,7-dimethylisoquinolin-6-yl)methyl)-1-((6-cyclopropylimidazo[1,2-a]pyridin-2-yl)methyl)-1H-pyrazole-4-carboxamide] | < 1
21 | Cc1cc2c(N)nccc2c(C)c1CNC(=O)c1cnn(Cc2cn3c(C)c(Cl)ccc3n2)c1 [Example 106, N-((1-amino-5,7-dimethylisoquinolin-6-yl)methyl)-1-((6-chloro-5-methylimidazo[1,2-a]pyridin-2-yl)methyl)-1H-pyrazole-4-carboxamide] | < 1
22 | Cc1cc2c(N)nccc2c(C)c1CNc1cc(OCc2ccc(Cn3ccc(C4CC4)n3)cc2)cnn1 [Example 431, 6-(((5-((4-((3-cyclopropyl-1H-pyrazol-1-yl)methyl)benzyl)oxy)pyridazin-3-yl)amino)methyl)-5,7-dimethylisoquinolin-1-amine] | < 1
23 | Cc1cc2c(N)nccc2c(C)c1CNc1cc(OCc2ccc(Cc3cccn4ccnc34)cc2)cnn1 [Example 444, 6-(((5-((4-(imidazo[1,2-a]pyridin-8-ylmethyl)benzyl)oxy)pyridazin-3-yl)amino)methyl)-5,7-dimethylisoquinolin-1-amine] | < 1
24 | Cc1cc2c(N)nccc2c(C)c1CNC(=O)c1cnn(Cc2ccc3nccnc3c2)c1 [Example 79, N-((1-amino-5,7-dimethylisoquinolin-6-yl)methyl)-1-(quinoxalin-6-ylmethyl)-1H-pyrazole-4-carboxamide] | 1 to 10
25 | Cc1ccc2nc(C(CO)n3cc(C(=O)NCc4c(C)cc5c(N)nccc5c4C)cn3)cn2c1 (stereo not shown) [Example 130, N-((1-amino-5,7-dimethylisoquinolin-6-yl)methyl)-1-(2-hydroxy-1-(6-methylimidazo[1,2-a]pyridin-2-yl)ethyl)-1H-pyrazole-4-carboxamide] | < 1
26 | Cc1cc2c(N)nccc2c(C)c1CNc1cc(NCc2ccc3nccc(C)c3c2)ncn1 [Example 324, N^4-((1-amino-5,7-dimethylisoquinolin-6-yl)methyl)-N^6-((4-methylquinolin-6-yl)methyl)pyrimidine-4,6-diamine] | 1 to 10
27 | Cc1cc2c(N)nccc2c(C)c1CNc1ccc2ncc(C(O)c3ccc4ccccc4c3)n2c1 (stereo not shown) [Example 521, (6-(((1-amino-5,7-dimethylisoquinolin-6-yl)methyl)amino)imidazo[1,2-a]pyridin-3-yl)(naphthalen-2-yl)methanol] | > 1000
28 | Cc1cc2c(N)nccc2c(C)c1CNc1cncc(NCc2ccc(Cn3cccn3)cc2)n1 [Example I-476, N^2-(4-((1H-pyrazol-1-yl)methyl)benzyl)-N^6-((1-amino-5,7-dimethylisoquinolin-6-yl)methyl)pyrazine-2,6-diamine] | 10 to 100
29 | Cc1cc2c(N)nccc2c(C)c1CNC(=O)c1cnn(Cc2oc3ccccc3c2C)c1 [Example 47, N-((1-amino-5,7-dimethylisoquinolin-6-yl)methyl)-1-((3-methylbenzofuran-2-yl)methyl)-1H-pyrazole-4-carboxamide] | 10 to 100
30 | Cc1cc2c(N)nccc2c(C)c1CNC(=O)c1cnn(Cc2ccc(-n3ccccc3=O)nc2)c1 [Example 46, N-((1-amino-5,7-dimethylisoquinolin-6-yl)methyl)-1-((2-oxo-2H-[1,2'-bipyridin]-5'-yl)methyl)-1H-pyrazole-4-carboxamide] | 10 to 100

Same assay, conditions: Primary Dose Response Assay: Average EC50, 500 pM activated kallikrein; 300 μM PFR-AMC; 30 min preincubation; 10 min room temperature; pH 7.5

Row | SMILES | EC50 [nM]
31 | Cc1c(CNC(=O)c2cnn(Cc3ccccc3)c2)c(C)c2ccnc(N)c2c1C [Example 170, N-((1-amino-5,7,8-trimethylisoquinolin-6-yl)methyl)-1-benzyl-1H-pyrazole-4-carboxamide] | > 1000
